Experimental findings from patent publication US6455714B1, “Labeled vitamin D compounds and the use thereof” (A & D BioScience, Inc., priority 1995, dated 2002) are described below.

Where two headings read alike, the source gives them in different places.

Experiment [1] has as its target T1, Human Vitamin D-binding Protein (hDBP) (Homo sapiens, UniProt P02774).
T1 sequence (P02774 17-474): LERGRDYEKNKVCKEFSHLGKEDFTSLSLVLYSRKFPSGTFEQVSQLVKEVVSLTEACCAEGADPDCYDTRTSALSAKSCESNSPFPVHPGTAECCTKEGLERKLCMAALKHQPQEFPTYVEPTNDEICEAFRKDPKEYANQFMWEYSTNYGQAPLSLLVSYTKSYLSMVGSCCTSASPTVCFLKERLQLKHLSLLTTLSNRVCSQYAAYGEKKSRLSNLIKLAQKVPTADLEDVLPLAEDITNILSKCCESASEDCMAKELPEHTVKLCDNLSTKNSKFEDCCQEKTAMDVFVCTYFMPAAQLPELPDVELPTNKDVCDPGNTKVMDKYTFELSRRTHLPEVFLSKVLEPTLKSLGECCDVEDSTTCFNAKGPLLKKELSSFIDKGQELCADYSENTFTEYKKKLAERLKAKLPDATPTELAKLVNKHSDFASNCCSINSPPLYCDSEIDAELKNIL
The method, then:
Competitive Radioligand Binding Assays of Aanalogs (C) and (F) with Human Vitamin D-binding Protein (hDBP)
These assays were carried out to determine the viability of these synthetic analogs to serve as substrates for hDBP.

In experiment [2] the target is T2, DBP (Homo sapiens, UniProt P02774).
T2 construct: purchased Calbiochem, San Diego, Calif
T2 sequence (P02774 17-474): T1 sequence (P02774 17-474)
The experiment is described as follows: Checkerboard titration (ELISA) of DBP and compound C to obtain a colorimetric signal. The format is binding. The conditions noted are these: with minimum 6.25 ng DBP; color determined visually. Here is the method: The method involves attachment of DBP to an ELISA plate followed by the addition of a known quantity of 25-OH-D3-biotin conjugate (compound C). […] Excess amount of C is washed off, and an excess of avidin is added which gets bound to biotin attached to 25-OH-D3. The plate is then incubated in sequence with anti-avidin antibody, a secondary antibody coupled to horseradish peroxidase (HRP), and ABTS (2,2′-azino-di-(3-ethylbenzthiazoline)sulfonate, the substrate that produces a […] color which may be monitored spectrophotometrically or visually. The intensity (absorbance) of the color is directly proportional to the concentration of compound C. In the first experiment, the optimal concentrations of DBP and compound C to develop color were determined (visually). In this experiment, each sample of DBP was tested against each amount of compound C.
A. Determination of the Optimal Amount of DBP and Compound (C) in a Checkerboard Titration (ELISA) to obtain a Colorimetric Signal
Add different amounts of purified hDBP (From Calbiochem, San Diego, Calif., in 100 mM Na2CO3 buffer, pH 8.4) to wells of an ELISA plate
Block excess sites with BSA (1 mg/ml, 300 μl)
↓ wash with PBS containing 0.05% TWEEN 20
Add different amounts of C in EtOH
Wash with PBS containing 0.05% TWEEN 20 (Biorad, Richmond, Calif.) […]
Color development detected visually or spectrophotometrically.
For orientation: In an ELISA, binding on a coated surface is turned into a signal by an enzyme label.

The target in experiment [3] is T2, DBP. Put plainly: ELISA to demonstrate that compound C can be competed out with 25-OH-D3. In kind it is binding. Conditions: 2 μg 25-OH-D3 added with C (30, 60, 120 ng); triplicate. The method, then:
In the next experiment, it was determined whether it would be possible to displace compound C, bound to DBP (which is attached to an ELISA plate), with a known concentration of 25-OH-D3. In a real sample, one will be measuring the amount of 25-OH-D and not that of compound C.
Procedure: same as before, except either C, or C and 2 μg of 25-OH-D3 were added to each plate. Each concentration (point) was done in triplicate. The blank contained no 25-OH-D3 or C.
Furthermore, the amount of compound C is […] to the concentration of added 25-OH-D3.

On to `C=C1CC[C@H](OCCCNC(=O)CCCCCNC(=O)CCCC[C@@H]2SC[C@@H]3NC(=O)N[C@@H]32)C/C1=C/C=C1\CCC[C@]2(C)[C@@H]([C@H](C)CCCC(C)(C)O)CC[C@@H]12` [C, Conjugate of 25-OH-D3-3-Aminopropyl Ether and Biotin-X-NHS], for which, in experiment [1], the “ability to replace 25-OH-D3 for DBP binding” value is “can replace 25-OH-D3 for DBP binding” and the “times less efficient than 25-OH-D3 in displacing 3H-25-OH-D3 bound to hDBP” value is about 11 times. Moreover, on DBP [2], the “minimum amount required to obtain yellow color” value stood at 30 ng. In the case of `C=C1CC[C@H](O)C/C1=C/C=C1\CCC[C@]2(C)[C@@H]([C@H](C)CCCC(C)(C)O)CC[C@@H]12` [Compound 25-OH-D3, 25-hydroxyvitamin D3], at DBP [3], the “displacement of compound C bound to DBP on an ELISA plate (color development)” value is listed as “capable of displacing compound C bound to DBP”. As to “Biotin conjugate of 25-OH-D3-3-aminopropyl-3-(6-amino) hexanoic acid”, the “ability to replace 25-OH-D3 for DBP binding” value in experiment [1] (FIG. 1) is “can replace 25-OH-D3 for DBP binding”.
